Assay results reported in patent US12528761B2, “Thyromimetics” (Autobahn Therapeutics, Inc., priority 2020, dated 2026).

Tests used:
TRβ = target: T1, TRβ (Homo sapiens, UniProt P10828); assay: TR reporter-gene assay (Gal4 DBD hybrid, luciferase), TRβ; type: cell-based; settings: for EC50: HEK293-derived reporter cells, 24 hr treatment, read-out: TRβ EC50
T1 construct: expressed in transfected cells; host or cells: HEK293
T1 sequence (P10828 217-461 limits assumed): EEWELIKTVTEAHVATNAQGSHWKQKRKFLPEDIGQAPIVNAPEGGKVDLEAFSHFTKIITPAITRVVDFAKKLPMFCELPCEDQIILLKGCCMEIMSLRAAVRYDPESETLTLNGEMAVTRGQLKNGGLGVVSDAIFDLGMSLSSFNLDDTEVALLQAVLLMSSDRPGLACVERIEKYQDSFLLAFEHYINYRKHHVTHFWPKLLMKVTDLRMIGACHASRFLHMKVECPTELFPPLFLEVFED
Protocol: (§1) Compounds were tested for thyroid-hormone receptor activity using TR reporter-gene assays. Reporter cells used in the assays express a TR-receptor hybrid (either TRα or TRβ) in which the native N-terminal DNA binding domain (DBD) has been replaced with that of the yeast Gal4 DBD. The reporter gene, firefly luciferase, is functionally linked to the Gal4 upstream activation sequence (UAS). Both cell lines were derived from human embryonic kidney (HEK293).
(§2) Step 1: A suspension of reporter cells was prepared in cell recovery medium containing 10% charcoal-stripped FBS, and dispensed into assay plates. The plates were pre-incubated for 6 hours in a cell culture incubator (37° C./5% CO2/85% humidity).
(§3) These intermediate stocks were subsequently diluted directly into compound screening medium containing 10% charcoal-stripped FBS to generate “2×-concentration” treatment media (containing 0.2, 0.4 or 0.8% DMSO).
(§4) Step 3: At the end of the pre-incubation period, culture media were discarded from the assay plates, and all wells received 100 μl of compound screening medium. 100 μl of each of the previously prepared “2×-concentration” treatment media were dispensed into duplicate assay wells, thereby achieving the desired final treatment concentrations. The final concentration of DMSO in all assay wells was 0.1, 0.2 or 0.4%. Assay plates were incubated for 24 hr in a cell culture incubator (37° C./5% CO2/85% humidity).
(§5) Step 4: At the 24 h assay endpoint, treatment media were discarded and 100 µl/well of luciferase detection reagent was added. Relative luminometer units (RLUs) were quantified from each assay well.

TRα = target: T2, TRα (Homo sapiens, UniProt P10827); assay: TR reporter-gene assay (Gal4 DBD hybrid, luciferase), TRα; type: cell-based; settings: HEK293-derived reporter cells, 24 hr treatment; read-out: TRα EC50
T2 construct: expressed in transfected cells; host or cells: HEK293
T2 sequence (P10827 1-410 isoform P10827-2): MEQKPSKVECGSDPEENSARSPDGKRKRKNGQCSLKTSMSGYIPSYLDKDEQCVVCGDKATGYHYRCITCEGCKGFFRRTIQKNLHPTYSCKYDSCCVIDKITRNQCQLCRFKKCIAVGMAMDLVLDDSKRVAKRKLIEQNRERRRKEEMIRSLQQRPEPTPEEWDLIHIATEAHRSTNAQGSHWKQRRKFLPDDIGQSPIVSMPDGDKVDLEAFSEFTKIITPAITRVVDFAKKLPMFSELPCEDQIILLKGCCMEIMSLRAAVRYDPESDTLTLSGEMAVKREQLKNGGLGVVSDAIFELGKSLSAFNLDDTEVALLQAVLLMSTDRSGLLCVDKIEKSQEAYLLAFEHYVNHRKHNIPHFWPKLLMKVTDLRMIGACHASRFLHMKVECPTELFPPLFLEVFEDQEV
Protocol: as §1, §2, §3, §4, §5

EC50 (TRβ) [nM]	T3-SI (selectivity index, EC50 (TRα)/EC50 (TRβ)) (TRβ; class symbols)	EC50 (TRα) [nM]	T3-SI (selectivity index, EC50 (TRα)/EC50 (TRβ)) (TRβ; given as a number)	Structure (SMILES)
10 to 100	++ (3× < T3-SI ≤ 30×)	10 to 100	–	Cc1cc(CSCC(=O)O)cc(Cl)c1Cc1ccc(O)c(C(C)C)c1 [Compound 124, 2-((3-chloro-4-(4-hydroxy-3-isopropylbenzyl)-5-methylbenzyl)thio)acetic acid]
10 to 100	++ (3× < T3-SI ≤ 30×)	10 to 100	–	Cc1cc(NCC(=O)O)c(F)c(Cl)c1Cc1ccc(O)c(C(C)C)c1 [Compound 222, (3-chloro-2-fluoro-4-(4-hydroxy-3-isopropylbenzyl)-5-methylphenyl)glycine]
100 to 1000	+ (T3-SI ≤ 3×)	100 to 1000	–	CC(C)c1cc(Cc2c(Cl)cc(OCCCCC(=O)O)cc2Cl)ccc1O [Compound 26, 5-(3,5-dichloro-4-(4-hydroxy-3-isopropylbenzyl)phenoxy)pentanoic acid]
10 to 100	++ (3× < T3-SI ≤ 30×)	10 to 100	–	C/C(=C\c1cc(Cl)c(Cc2ccc(O)c(C(C)C)c2)c(C)c1F)C(=O)O [Compound 128, (E)-3-(5-chloro-2-fluoro-4-(4-hydroxy-3-isopropylbenzyl)-3-methylphenyl)-2-methylacrylic acid]
10 to 100	++ (3× < T3-SI ≤ 30×)	10 to 100	–	CONC(=O)CCc1cc(Cl)c(Cc2ccc(O)c(C(C)C)c2F)c(Cl)c1 [Compound 106, 3-(3,5-dichloro-4-(2-fluoro-4-hydroxy-3-isopropylbenzyl)phenyl)-N-methoxypropanamide]
10 to 100	++ (3× < T3-SI ≤ 30×)	10 to 100	–	CC(C)c1cc(Cc2c(Cl)cc(COCC(=O)O)cc2Cl)ccc1O [Compound 28, 2-((3,5-dichloro-4-(4-hydroxy-3-isopropylbenzyl)benzyl)oxy)acetic acid]
100 to 1000	++ (3× < T3-SI ≤ 30×)	100 to 1000	–	Cc1cc(CSCC(=O)O)c(F)c(Cl)c1Cc1ccc(O)c(C(C)C)c1 [Compound 224, 2-((3-chloro-2-fluoro-4-(4-hydroxy-3-isopropylbenzyl)-5-methylbenzyl)thio)acetic acid]
10 to 100	+ (T3-SI ≤ 3×)	10 to 100	–	Cc1cc(/C=C/C(=O)O)cc(Cl)c1Cc1ccc(O)c(C(C)C)c1F [Compound 250, (E)-3-(3-chloro-4-(2-fluoro-4-hydroxy-3-isopropylbenzyl)-5-methylphenyl)acrylic acid]
10 to 100	++ (3× < T3-SI ≤ 30×)	10 to 100	–	CC(C)c1cc(Cc2c(Cl)cc(CCC(=O)O)cc2Cl)ccc1O [Compound 11, 3-(3,5-dichloro-4-(4-hydroxy-3-isopropylbenzyl)phenyl)propanoic acid]
> 1000	++ (3× < T3-SI ≤ 30×)	> 1000	–	CC(C)c1cc(Cc2c(Cl)cc(CS(=O)(=O)CC(=O)O)cc2Cl)ccc1O [Compound 97, 2-((3,5-dichloro-4-(4-hydroxy-3-isopropylbenzyl)benzyl)sulfonyl)acetic acid]
> 1000	+ (T3-SI ≤ 3×)	100 to 1000	–	CC(C)c1cc(Cc2c(Cl)cc(/C=C\C(=O)O)cc2Cl)ccc1O [Compound 100, (Z)-3-(3,5-dichloro-4-(4-hydroxy-3-isopropylbenzyl)phenyl)acrylic acid]
> 1000	+ (T3-SI ≤ 3×)	> 1000	–	CC(C)c1cc(Cc2c(Cl)cc(N(C)CC(=O)O)cc2Cl)ccc1O [Compound 148, N-(3,5-dichloro-4-(4-hydroxy-3-isopropylbenzyl)phenyl)-N-methylglycine]
10 to 100	++ (3× < T3-SI ≤ 30×)	10 to 100	–	CC(C)c1c(O)ccc(Cc2c(Cl)cc(CCC(=O)O)c(F)c2Cl)c1F [Compound 71, 3-(3,5-dichloro-2-fluoro-4-(2-fluoro-4-hydroxy-3-isopropylbenzyl)phenyl)propanoic acid]
10 to 100	++ (3× < T3-SI ≤ 30×)	10 to 100	–	CC(C)c1cc(Cc2c(Cl)cc(NCC(=O)O)cc2Cl)ccc1O [Compound 20, (3,5-dichloro-4-(4-hydroxy-3-isopropylbenzyl)phenyl)glycine]
100 to 1000	++ (3× < T3-SI ≤ 30×)	100 to 1000	–	CON(C)C(=O)CCc1cc(Cl)c(Cc2ccc(O)c(C(C)C)c2F)c(Cl)c1 [Compound 107, 3-(3,5-dichloro-4-(2-fluoro-4-hydroxy-3-isopropylbenzyl)phenyl)-N-methoxy-N-methylpropanamide]
10 to 100	++ (3× < T3-SI ≤ 30×)	100 to 1000	–	Cc1cc(CC(=O)O)cc(C)c1Cc1ccc(O)c(C(C)c2ccc(F)cc2)c1 (stereo not drawn) [Compound 2, 2-(4-(3-(1-(4-fluorophenyl)ethyl)-4-hydroxybenzyl)-3,5-dimethylphenyl)acetic acid]
100 to 1000	–	100 to 1000	7.15	CC(C)c1c(O)ccc(Cc2c(Cl)cc(NC(=O)C(=O)O)cc2Cl)c1F [Compound 213, 2-((3,5-dichloro-4-(2-fluoro-4-hydroxy-3-isopropylbenzyl)phenyl)amino)-2-oxoacetic acid]
10 to 100	++ (3× < T3-SI ≤ 30×)	100 to 1000	–	Cc1cc(NC(=O)CC(=O)O)cc(C)c1Cc1ccc(O)c(C(C)c2ccc(F)cc2)c1 (stereo not drawn) [Compound 4, 3-((4-(3-(1-(4-fluorophenyl)ethyl)-4-hydroxybenzyl)-3,5-dimethylphenyl)amino)-3-oxopropanoic acid]
100 to 1000	+ (T3-SI ≤ 3×)	100 to 1000	–	CC(C)c1cc(Cc2c(Cl)cc(OCCCC(=O)O)cc2Cl)ccc1O [Compound 24, 4-(3,5-dichloro-4-(4-hydroxy-3-isopropylbenzyl)phenoxy)butanoic acid]
< 10	++ (3× < T3-SI ≤ 30×)	< 10	–	Cc1c(F)c(NCC(=O)O)cc(Cl)c1Cc1ccc(O)c(C(C)C)c1F [Compound 133, (5-chloro-2-fluoro-4-(2-fluoro-4-hydroxy-3-isopropylbenzyl)-3-methylphenyl)glycine]
< 10	++ (3× < T3-SI ≤ 30×)	10 to 100	–	O=C(O)CCc1cc(Cl)c(Cc2ccc(O)c(-c3cc(OC(F)F)ccc3F)c2F)c(Cl)c1 [Compound 44, 3-(3,5-dichloro-4-((5′-(difluoromethoxy)-2,2′-difluoro-6-hydroxy-[1,1′-biphenyl]-3-yl)methyl)phenyl)propanoic acid]
< 10	+ (T3-SI ≤ 3×)	< 10	–	CC(C)c1c(O)ccc(Cc2c(Cl)cc(/C=C/C(=O)O)cc2Cl)c1F [Compound 88, (E)-3-(3,5-dichloro-4-(2-fluoro-4-hydroxy-3-isopropylbenzyl)phenyl)acrylic acid]
< 10	++ (3× < T3-SI ≤ 30×)	< 10	–	CC(C)c1c(O)ccc(Cc2c(Cl)cc(CSCC(=O)O)cc2Cl)c1F [Compound 200, 2-((3,5-dichloro-4-(2-fluoro-4-hydroxy-3-isopropylbenzyl)benzyl)thio)acetic acid]
> 1000	++ (3× < T3-SI ≤ 30×)	> 1000	–	Cc1cc(C[S+]([O-])CC(=O)O)cc(Cl)c1Cc1ccc(O)c(C(C)C)c1 (stereo not drawn) [Compound 246, 2-((3-chloro-4-(4-hydroxy-3-isopropylbenzyl)-5-methylbenzyl)sulfinyl)acetic acid]
10 to 100	+ (T3-SI ≤ 3×)	10 to 100	–	CC(C)c1cc(Cc2c(Cl)cc(/C=C/C(=O)O)cc2Cl)ccc1O [Compound 86, (E)-3-(3,5-dichloro-4-(4-hydroxy-3-isopropylbenzyl)phenyl)acrylic acid]
